Experimental data reported in ChEMBL document CHEMBL6120971 (J Med Chem, 2024).
Each block holds one molecule with its values, some of them ahead of it. Active and inactive are the calls of the source. The rule behind the calls is not given here.

Assays:
MKN-45 [1] = experiment: Induction of c-MET degradation in human MKN-45 cells assessed as residual activity at 100 nM incubated for 24 hrs by Western blot analysis (reference value: 100 %); type: cell-based
[2] = Toxicity in BALB/c nude mouse xenografted with human MKN-45 cells assessed as body weight loss at 10 mg/kg, po administered once daily for 21 days; type: organism-based; conditions: in vivo, 504 h, time 21 day
[3] = Toxicity in BALB/c nude mouse xenografted with human MKN-45 cells assessed as effect on lung morphology at 10 mg/kg, po administered once daily for 21 days by H and E staining based analysis; type: organism-based; conditions: in vivo, 504 h, time 21 day
[4] = Toxicity in BALB/c nude mouse xenografted with human MKN-45 cells assessed as effect on liver morphology at 10 mg/kg, po administered once daily for 21 days by H and E staining based analysis; type: organism-based; conditions: in vivo, 504 h, time 21 day
[5] = Toxicity in BALB/c nude mouse xenografted with human MKN-45 cells assessed as effect on spleen morphology at 10 mg/kg, po administered once daily for 21 days by H and E staining based analysis; type: organism-based; conditions: in vivo, 504 h, time 21 day
[6] = Toxicity in BALB/c nude mouse xenografted with human MKN-45 cells assessed as effect on kidney morphology at 10 mg/kg, po administered once daily for 21 days by H and E staining based analysis; type: organism-based; conditions: in vivo, 504 h, time 21 day
[7] = Toxicity in BALB/c nude mouse xenografted with human MKN-45 cells assessed as effect on heart morphology at 10 mg/kg, po administered once daily for 21 days by H and E staining based analysis; type: organism-based; conditions: in vivo, 504 h, time 21 day
[8] = AUC (0 to infinity) in po dosed rat; type: ADME, organism-based; conditions: in vivo
[9] = Cmax in po dosed rat; type: ADME, organism-based; conditions: in vivo
[10] = Half-life in Wistar rat at 20 mg/kg, po measured after 24 hrs by UPLC-MS/MS analysis; type: ADME, organism-based; conditions: in vivo
[11] = Tmax in Wistar rat at 20 mg/kg, po measured after 24 hrs by UPLC-MS/MS analysis; type: ADME, organism-based; conditions: in vivo
HCC1954 = experiment: Antiproliferative activity against human HCC1954 cells incubated for 72 hrs by MTT assay; type: functional, cell-based; conditions: HCC1954, 72 h
[12] = target: T1, von Hippel-Lindau disease tumor suppressor/Hepatocyte growth factor receptor (Homo sapiens, UniProt P08581+P40337); experiment: PROTAC activity at VHL/c-MET (unknown origin); type: protein
Target sequence in this assay (P08581 whole entry): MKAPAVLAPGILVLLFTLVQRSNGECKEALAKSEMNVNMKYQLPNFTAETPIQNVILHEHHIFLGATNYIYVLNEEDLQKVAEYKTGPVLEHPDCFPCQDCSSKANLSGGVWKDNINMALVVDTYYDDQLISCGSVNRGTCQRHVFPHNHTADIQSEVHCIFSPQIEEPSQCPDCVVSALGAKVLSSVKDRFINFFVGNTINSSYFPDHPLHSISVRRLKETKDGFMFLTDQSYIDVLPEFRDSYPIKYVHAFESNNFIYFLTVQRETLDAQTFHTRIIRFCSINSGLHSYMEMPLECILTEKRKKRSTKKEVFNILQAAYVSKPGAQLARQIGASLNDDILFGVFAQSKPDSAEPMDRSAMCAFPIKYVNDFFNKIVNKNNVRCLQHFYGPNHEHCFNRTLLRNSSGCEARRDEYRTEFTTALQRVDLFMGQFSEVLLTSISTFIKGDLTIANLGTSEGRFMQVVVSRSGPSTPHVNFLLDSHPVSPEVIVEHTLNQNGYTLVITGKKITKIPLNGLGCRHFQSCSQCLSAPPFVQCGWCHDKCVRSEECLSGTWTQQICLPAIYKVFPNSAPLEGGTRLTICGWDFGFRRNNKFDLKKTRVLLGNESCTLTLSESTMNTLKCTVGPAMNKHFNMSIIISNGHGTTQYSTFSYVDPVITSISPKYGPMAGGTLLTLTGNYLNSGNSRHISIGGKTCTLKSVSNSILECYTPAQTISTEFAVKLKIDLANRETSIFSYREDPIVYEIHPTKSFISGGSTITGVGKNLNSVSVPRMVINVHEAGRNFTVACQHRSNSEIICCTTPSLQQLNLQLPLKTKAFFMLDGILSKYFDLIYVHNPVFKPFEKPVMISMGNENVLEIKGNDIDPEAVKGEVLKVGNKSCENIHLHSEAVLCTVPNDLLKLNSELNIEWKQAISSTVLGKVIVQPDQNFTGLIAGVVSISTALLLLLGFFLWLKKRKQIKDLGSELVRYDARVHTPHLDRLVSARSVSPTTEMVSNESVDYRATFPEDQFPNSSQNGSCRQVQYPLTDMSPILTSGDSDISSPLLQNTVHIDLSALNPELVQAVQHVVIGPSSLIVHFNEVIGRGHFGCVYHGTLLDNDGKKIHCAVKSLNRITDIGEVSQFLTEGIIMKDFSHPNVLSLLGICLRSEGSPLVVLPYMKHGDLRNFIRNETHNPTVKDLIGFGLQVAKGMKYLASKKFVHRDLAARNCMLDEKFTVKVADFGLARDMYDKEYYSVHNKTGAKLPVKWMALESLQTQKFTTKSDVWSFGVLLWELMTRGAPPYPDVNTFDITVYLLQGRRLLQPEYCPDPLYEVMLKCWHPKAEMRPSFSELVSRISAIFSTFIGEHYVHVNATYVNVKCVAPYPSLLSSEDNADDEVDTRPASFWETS
Target sequence in this assay (P40337 whole entry): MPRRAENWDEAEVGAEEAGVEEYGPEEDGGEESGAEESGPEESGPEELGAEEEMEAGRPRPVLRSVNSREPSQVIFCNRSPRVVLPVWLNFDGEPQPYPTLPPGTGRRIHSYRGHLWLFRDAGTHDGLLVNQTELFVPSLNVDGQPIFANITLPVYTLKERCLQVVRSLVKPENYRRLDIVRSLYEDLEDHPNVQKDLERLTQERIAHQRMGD

MKN-45 [13] = experiment: Antiproliferative activity against human MKN-45 cells incubated for 72 hrs by CCK8 assay; type: functional, cell-based; conditions: MKN-45, 72 h
[14] = target: T1, von Hippel-Lindau disease tumor suppressor/Hepatocyte growth factor receptor; experiment: PROTAC activity at VHL/c-MET in human MKN-45 cells assessed as induction of c-MET degradation by measuring residual activity at 100 nM incubated for 24 hrs by Western blot analysis (reference value: 100 %); type: cell-based
Target sequence in this assay (P40337 whole entry partner): as the sequence (P40337 whole entry) above
Target sequence in this assay (P08581 25-1390 limits assumed): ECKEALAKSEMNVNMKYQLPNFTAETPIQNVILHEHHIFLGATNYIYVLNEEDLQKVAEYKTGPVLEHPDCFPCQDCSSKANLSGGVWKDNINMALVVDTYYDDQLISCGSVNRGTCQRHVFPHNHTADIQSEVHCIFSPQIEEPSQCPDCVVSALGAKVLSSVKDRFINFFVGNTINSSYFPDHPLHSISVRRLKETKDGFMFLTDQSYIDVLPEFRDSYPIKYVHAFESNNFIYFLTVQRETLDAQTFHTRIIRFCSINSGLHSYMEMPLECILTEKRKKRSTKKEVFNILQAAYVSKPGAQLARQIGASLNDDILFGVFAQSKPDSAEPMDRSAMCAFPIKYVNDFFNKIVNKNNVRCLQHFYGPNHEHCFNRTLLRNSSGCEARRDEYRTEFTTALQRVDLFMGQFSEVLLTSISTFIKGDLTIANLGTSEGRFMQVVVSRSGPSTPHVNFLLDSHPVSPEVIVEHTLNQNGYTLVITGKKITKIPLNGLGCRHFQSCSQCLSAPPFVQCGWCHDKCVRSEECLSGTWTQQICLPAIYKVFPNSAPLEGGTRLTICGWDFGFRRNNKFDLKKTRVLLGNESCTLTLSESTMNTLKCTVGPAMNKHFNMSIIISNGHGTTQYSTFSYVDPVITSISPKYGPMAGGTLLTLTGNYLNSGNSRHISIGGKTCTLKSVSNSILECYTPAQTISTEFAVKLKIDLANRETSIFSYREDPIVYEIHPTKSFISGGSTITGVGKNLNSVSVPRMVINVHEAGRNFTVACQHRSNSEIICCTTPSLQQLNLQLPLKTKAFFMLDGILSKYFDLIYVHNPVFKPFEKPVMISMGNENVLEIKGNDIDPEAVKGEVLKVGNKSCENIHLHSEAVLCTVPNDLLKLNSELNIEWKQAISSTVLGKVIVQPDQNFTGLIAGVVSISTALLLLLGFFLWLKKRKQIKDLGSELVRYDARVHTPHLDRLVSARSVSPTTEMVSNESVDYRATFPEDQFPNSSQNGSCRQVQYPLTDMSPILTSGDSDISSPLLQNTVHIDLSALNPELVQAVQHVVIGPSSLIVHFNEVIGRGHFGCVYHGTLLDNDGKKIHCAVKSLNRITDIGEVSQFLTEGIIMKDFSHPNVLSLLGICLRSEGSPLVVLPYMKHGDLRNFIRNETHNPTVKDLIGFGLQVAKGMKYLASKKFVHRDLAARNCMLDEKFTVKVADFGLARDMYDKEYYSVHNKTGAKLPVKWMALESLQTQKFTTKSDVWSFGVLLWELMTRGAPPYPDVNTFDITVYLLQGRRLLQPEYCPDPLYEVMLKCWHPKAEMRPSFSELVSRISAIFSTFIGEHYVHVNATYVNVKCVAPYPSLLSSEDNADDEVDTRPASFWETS

MKN-45 [15] = experiment: Downregulation of KPNA2 protein level in human MKN-45 cells by MS-based quantitative proteomics analysis; type: functional, cell-based
MKN-45 [16] = experiment: Downregulation of SLC7A1 protein level in human MKN-45 cells by MS-based quantitative proteomics analysis; type: functional, cell-based
MKN-45 [17] = experiment: Upregulation of PDCD4 protein level in human MKN-45 cells by MS-based quantitative proteomics analysis; type: functional, cell-based
[18] = target: T1, von Hippel-Lindau disease tumor suppressor/Hepatocyte growth factor receptor; experiment: PROTAC activity at VHL/c-MET in human MKN-45 cells assessed as induction of c-MET degradation at 6.25 to 100 nM incubated for 24 hrs by Western blot analysis; type: cell-based; conditions: dose 6.25-100 nM
Target sequence in this assay (P40337 whole entry partner): as the sequence (P40337 whole entry) above
Target sequence in this assay (P08581 25-1390 limits assumed): as the sequence (P08581 25-1390 limits assumed) above

[19] = target: von Hippel-Lindau disease tumor suppressor/Importin subunit alpha-1 (Homo sapiens) (UniProt P52292+P40337); experiment: PROTAC activity at VHL/KPNA2 in human MKN-45 cells assessed as induction of c-MET degradation at 6.25 to 100 nM incubated for 24 hrs by Western blot analysis; type: cell-based; conditions: dose 6.25-100 nM
[20] = target: Protein cereblon/Hepatocyte growth factor receptor (Homo sapiens, UniProt P08581+Q96SW2); experiment: PROTAC activity at CRBN/c-MET in human MKN-45 cells assessed as induction of c-MET degradation incubated for 72 hrs by Western blot analysis; type: cell-based
Sequence of Protein cereblon/Hepatocyte growth factor receptor (P08581 whole entry): as the sequence (P08581 whole entry) above
Sequence of Protein cereblon/Hepatocyte growth factor receptor (Q96SW2 whole entry): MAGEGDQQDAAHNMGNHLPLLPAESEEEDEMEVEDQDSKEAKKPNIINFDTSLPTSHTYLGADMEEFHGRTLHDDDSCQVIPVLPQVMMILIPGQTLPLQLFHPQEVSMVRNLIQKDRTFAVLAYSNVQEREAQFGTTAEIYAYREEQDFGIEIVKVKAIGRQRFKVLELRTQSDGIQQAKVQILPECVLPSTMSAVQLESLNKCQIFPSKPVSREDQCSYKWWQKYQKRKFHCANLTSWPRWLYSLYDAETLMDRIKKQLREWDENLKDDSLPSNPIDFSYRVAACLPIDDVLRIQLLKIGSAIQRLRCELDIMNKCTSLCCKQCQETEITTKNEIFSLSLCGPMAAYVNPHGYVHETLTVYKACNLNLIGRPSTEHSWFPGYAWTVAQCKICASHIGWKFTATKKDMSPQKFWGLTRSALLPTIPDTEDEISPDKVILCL

MKN-45 [21] = experiment: Downregulation of prothymosin-alpha protein abundance in human MKN-45 cells by MS-based quantitative proteomics analysis; type: functional, cell-based
MKN-45 [22] = experiment: Downregulation of HMGCS1 protein level in human MKN-45 cells by MS-based quantitative proteomics analysis; type: functional, cell-based

SMILES: CNC(=O)c1ccc(-c2cnc3ncc(Cc4ccc5ncccc5c4)n3n2)cc1F [CAPMATINIB]
Activity (MKN-45 [1]): 112%
Activity [2]: Non-toxic
Activity [3]: Non-toxic
Activity [4]: Non-toxic
Activity [5]: Non-toxic
Activity [6]: Non-toxic
Activity [7]: Non-toxic
AUC(0-inf) [8]: 10.4 µg·h/mL
Cmax [9]: 3.82 µg/mL
half-life [10]: 4.09 h
Tmax [11]: 0.5 h

SMILES: COc1cc2c(Oc3ccc(NC(=O)C4(C(=O)Nc5ccc(F)cc5)CC4)cc3)ccnc2cc1OCCCOCCCOCCC(=O)N[C@H](C(=O)N1C[C@H](O)C[C@H]1C(=O)NCc1ccc(-c2scnc2C)cc1)C(C)(C)C
IC50 (HCC1954): 6.7 µM
DC50 [12]: > 1.11 µM

SMILES: C[C@@H](Oc1cc(-c2cnn(C3CCN(C(=O)CCCCCCCOc4cccc5c4C(=O)N(C4CCC(=O)NC4=O)C5=O)CC3)c2)cnc1N)c1c(Cl)ccc(F)c1Cl (some centres not stated)
DC50 [20]: > 0.1 µM
IC50 (MKN-45 [13]): 0.347 µM

Second part, led by results:

IC50 (MKN-45 [13]): 0.0707 µM
Activity [14]: 64%
Activity [18]: Active
Activity [19]: Active
SMILES: Cc1ncsc1-c1ccc([C@H](C)NC(=O)[C@@H]2C[C@@H](O)CN2C(=O)[C@@H](NC(=O)CCCCCCCCC(=O)N2CCC(n3cc(-c4cnc(N)c(O[C@H](C)c5c(Cl)ccc(F)c5Cl)c4)cn3)CC2)C(C)(C)C)cc1
Activity (MKN-45 [15]): Active
Activity (MKN-45 [16]): Active
Activity (MKN-45 [17]): Active

IC50 (MKN-45 [13]): 0.102 µM
Activity [14]: 50%
SMILES: Cc1ncsc1-c1ccc([C@H](C)NC(=O)[C@@H]2C[C@@H](O)CN2C(=O)[C@@H](NC(=O)CCCCCCCCC(=O)N2CCC(COc3cnc(-c4cccc(Cn5nc(-c6cccc(C#N)c6)ccc5=O)c4)nc3)CC2)C(C)(C)C)cc1
Activity (MKN-45 [21]): Active
Activity (MKN-45 [22]): Active
Activity (MKN-45 [17]): Active
